Results published in patent publication US20260207563A1, “UREA COMPOUNDS AS ACTIVATORS OF POTASSIUM CHANNELS KV7.2/7.3 USEFUL IN THE TREATMENT OF CNS AND PNS DISORDERS” (ANGELINI PHARMA S.P.A., priority 2022, published 2026).

How the values were obtained:
Type in all cases: cell-based
[1] = biological target: T1, homomeric KV7.4 channel (KCNQ4) (Homo sapiens, UniProt P56696); assay: Automated patch-clamp (Qube) counter-screening assay against KV7.4 channel; conditions: CHO-K1 cells expressing KV7.4; class by maximal shift in the Vhalf at 30 μM
T1 construct: host or cells: CHO-K1
How it was run: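 EC50 and maximal shift in half-activation voltage come from 4-parameter logistic fits of mean Vhalf shifts. The series had ten 1-in-3 concentrations, highest 30 μM, each tested in quadruplicate. Recordings used automated Qube patch clamp on a stable CHO-K1 line expressing KCNQ4, and selectivity was judged from the 30 μM Vhalf shift.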

[2] = biological target: T2, heteromeric KV7.3/KV7.5 channel (KCNQ3, KCNQ5) (Homo sapiens, UniProt O43525+Q9NR82); assay: Automated patch-clamp counter-screening against KV7.3/KV7.5 channel; conditions: HEK293 cells expressing Kv7.3/KV7.5; class by maximal shift in the Vhalf at 30 μM
T2 construct: host or cells: HEK293
How it was run: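 Potency came from a 4-parameter logistic fit of mean voltage-of-half-activation shifts, yielding EC50 and maximal shift; selectivity was judged on the shift at 30 μM. Compounds were applied at ten 3-fold dilutions from 30 μM in quadruplicate to HEK293 cells stably carrying Kv7.3 with tet-inducible Kv7.5.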

[3] = biological target: T3, heteromeric KV7.2/KV7.3 channels (KCNQ2, KCNQ3) (Homo sapiens, UniProt O43525+O43526); assay: Automated patch-clamp (Sophion Qube 384) potency assay against KV7.2/KV7.3 channels; conditions: CHO-K1/Kv7.2/Kv7.3 cells; for EC50: EC50 from concentration-response of shift in Vhalf, 10 concentrations up to 30 μM, read-out: Kv7.2/7.3 EC50; for Kv7.2/7.3 ΔV1/2: maximal shift in the Vhalf from the top of the curve
T3 construct: expressed in transfected cells; host or cells: CHO-K1
How it was run: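 Activator potency: EC50 from 4-parameter logistic fit of mean Vhalf shift across ten 1-in-3 dilutions starting at 30 μM (n=4), with DMSO (typically 0.3%) control. Currents recorded by leak-subtracted whole-cell clamp of stable CHO-K1 KV7.2/KV7.3 cells, held at −80 mV, stepped −100 to +20 mV then 0 mV tails.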

Row | Structure (SMILES) | EC50 [3] | Kv7.2/7.3 ΔV1/2 [3] | Kv7.4 selectivity criteria [1] | Kv7.3/7.5 selectivity criteria [2]
1 | O=C(NCc1ccnc(OCC(F)(F)F)c1)N[C@H]1CCc2ccc(F)cc21 [Compound 89] | 2180 nM | 18.85 mV | B (Non-selective compounds showed Kv7.4 and/or Kv7.3/7.5 ΔV1/2 higher than 15 mV (letter B in table 3)) | A (Selective compounds showed Kv7.4 and/or Kv7.3/7.5 ΔV1/2 equal to or lower than 15 mV (letter A in table 3))
2 | C[C@@H](Oc1cc(CNC(=O)NCCC2(C(F)(F)F)CC2)ncn1)C(F)(F)F [Compound 91] | 2290 nM | 37.24 mV | A (Selective compounds showed Kv7.4 and/or Kv7.3/7.5 ΔV1/2 equal to or lower than 15 mV (letter A in table 3)) | B (Non-selective compounds showed Kv7.4 and/or Kv7.3/7.5 ΔV1/2 higher than 15 mV (letter B in table 3))
3 | O=C(NCc1ccnc(C(F)(F)F)c1)N[C@@H]1CCc2ccc(F)cc21 [Compound 92] | 3950 nM | 16.77 mV | A (Selective compounds showed Kv7.4 and/or Kv7.3/7.5 ΔV1/2 equal to or lower than 15 mV (letter A in table 3)) | A (Selective compounds showed Kv7.4 and/or Kv7.3/7.5 ΔV1/2 equal to or lower than 15 mV (letter A in table 3))
4 | C[C@@H](Oc1nccc(CNC(=O)NCCC2(C(F)(F)F)CC2)n1)C(F)(F)F [Compound 93] | 4460 nM | 34.16 mV | B (Non-selective compounds showed Kv7.4 and/or Kv7.3/7.5 ΔV1/2 higher than 15 mV (letter B in table 3)) | A (Selective compounds showed Kv7.4 and/or Kv7.3/7.5 ΔV1/2 equal to or lower than 15 mV (letter A in table 3))
5 | O=C(NCc1ccnc(C(F)(F)F)c1)N[C@H]1CCc2ccc(F)cc21 [Compound 94] | 4170 nM | 13.23 mV | A (Selective compounds showed Kv7.4 and/or Kv7.3/7.5 ΔV1/2 equal to or lower than 15 mV (letter A in table 3)) | A (Selective compounds showed Kv7.4 and/or Kv7.3/7.5 ΔV1/2 equal to or lower than 15 mV (letter A in table 3))
6 | O=C(NCCC1(C(F)(F)F)CC1)N1CCCC1c1ccnc(OCC(F)(F)F)c1 (centres unmarked) [Compound 95] | 2290 nM | 21.55 mV | A (Selective compounds showed Kv7.4 and/or Kv7.3/7.5 ΔV1/2 equal to or lower than 15 mV (letter A in table 3)) | A (Selective compounds showed Kv7.4 and/or Kv7.3/7.5 ΔV1/2 equal to or lower than 15 mV (letter A in table 3))
7 | C[C@H](Oc1cc(CNC(=O)NCCC2(C(F)(F)F)CC2)ncn1)C(F)(F)F [Compound 96] | 6610 nM | 25.66 mV | A (Selective compounds showed Kv7.4 and/or Kv7.3/7.5 ΔV1/2 equal to or lower than 15 mV (letter A in table 3)) | A (Selective compounds showed Kv7.4 and/or Kv7.3/7.5 ΔV1/2 equal to or lower than 15 mV (letter A in table 3))
8 | C[C@H](NC(=O)NCCC1(C(F)(F)F)CC1)c1ccnc(C(F)(F)F)c1 [Compound 97] | 2300 nM | 26.87 mV | B (Non-selective compounds showed Kv7.4 and/or Kv7.3/7.5 ΔV1/2 higher than 15 mV (letter B in table 3)) | B (Non-selective compounds showed Kv7.4 and/or Kv7.3/7.5 ΔV1/2 higher than 15 mV (letter B in table 3))
9 | C[C@H](Oc1nccc(CNC(=O)NCCC2(C(F)(F)F)CC2)n1)C(F)(F)F [Compound 98] | 5140 nM | 22.14 mV | A (Selective compounds showed Kv7.4 and/or Kv7.3/7.5 ΔV1/2 equal to or lower than 15 mV (letter A in table 3)) | A (Selective compounds showed Kv7.4 and/or Kv7.3/7.5 ΔV1/2 equal to or lower than 15 mV (letter A in table 3))
10 | O=C(N[C@@H](CO)c1ccnc(OCC(F)(F)F)c1)N[C@H]1CCc2ccc(F)cc21 [Compound 99] | 12800 nM | 29.92 mV | B (Non-selective compounds showed Kv7.4 and/or Kv7.3/7.5 ΔV1/2 higher than 15 mV (letter B in table 3)) | B (Non-selective compounds showed Kv7.4 and/or Kv7.3/7.5 ΔV1/2 higher than 15 mV (letter B in table 3))
11 | O=C(NCc1ccnc(C(F)(F)F)c1)NCC1CCCCC1 [Compound 100] | 3940 nM | 24.71 mV | A (Selective compounds showed Kv7.4 and/or Kv7.3/7.5 ΔV1/2 equal to or lower than 15 mV (letter A in table 3)) | B (Non-selective compounds showed Kv7.4 and/or Kv7.3/7.5 ΔV1/2 higher than 15 mV (letter B in table 3))
12 | O=C(N[C@@H](CO)c1ccnc(OCC(F)(F)F)c1)N[C@@H]1CCc2ccc(F)cc21 [Compound 101] | 2640 nM | 38.71 mV | B (Non-selective compounds showed Kv7.4 and/or Kv7.3/7.5 ΔV1/2 higher than 15 mV (letter B in table 3)) | B (Non-selective compounds showed Kv7.4 and/or Kv7.3/7.5 ΔV1/2 higher than 15 mV (letter B in table 3))
13 | O=C(NCc1ccnc(C(F)(F)F)c1)Nc1cc(F)cc(Cl)c1 [Compound 102] | 3830 nM | 35.23 mV | B (Non-selective compounds showed Kv7.4 and/or Kv7.3/7.5 ΔV1/2 higher than 15 mV (letter B in table 3)) | B (Non-selective compounds showed Kv7.4 and/or Kv7.3/7.5 ΔV1/2 higher than 15 mV (letter B in table 3))

More lines, in order of falling EC50 [3], values ahead:

Row | EC50 [3] | Kv7.2/7.3 ΔV1/2 [3] | Structure (SMILES) | Kv7.4 selectivity criteria [1] | Kv7.3/7.5 selectivity criteria [2]
14 | 2150 nM | 18.38 mV | O=C(NCCC1(C(F)(F)F)CC1)NCc1cc(OCC(F)(F)F)nc(C(F)(F)F)c1 [Compound 82, 1-((2-(2,2,2-Trifluoroethoxy)-6-(trifluoromethyl)pyridin-4-yl)methyl)-3-(2-(1-(trifluoromethyl)cyclopropyl)ethyl)urea] | B (Non-selective compounds showed Kv7.4 and/or Kv7.3/7.5 ΔV1/2 higher than 15 mV (letter B in table 3)) | A (Selective compounds showed Kv7.4 and/or Kv7.3/7.5 ΔV1/2 equal to or lower than 15 mV (letter A in table 3))
15 | 1850 nM | 27.66 mV | O=C(NCCC1(C(F)(F)F)CC1)NCc1cc(OCC(F)(F)F)ncc1F [Compound 87, 1-((5-Fluoro-2-(2,2,2-trifluoroethoxy)pyridin-4-yl)methyl)-3-(2-(1-(trifluoromethyl)cyclopropyl)ethyl)urea] | A (Selective compounds showed Kv7.4 and/or Kv7.3/7.5 ΔV1/2 equal to or lower than 15 mV (letter A in table 3)) | A (Selective compounds showed Kv7.4 and/or Kv7.3/7.5 ΔV1/2 equal to or lower than 15 mV (letter A in table 3))
16 | 1350 nM | 38.89 mV | O=C(NCc1ccnc(OCC(F)(F)F)c1)N[C@@H]1CCc2ccc(F)cc21 [Compound 86, (R)-1-(6-fluoro-2,3-dihydro-1H-inden-1-yl)-3-((2-(2,2,2-trifluoroethoxy)pyridin-4-yl)methyl)urea] | A (Selective compounds showed Kv7.4 and/or Kv7.3/7.5 ΔV1/2 equal to or lower than 15 mV (letter A in table 3)) | A (Selective compounds showed Kv7.4 and/or Kv7.3/7.5 ΔV1/2 equal to or lower than 15 mV (letter A in table 3))
17 | 1340 nM | 42.63 mV | O=C(NCC1CCCCC1)N[C@@H](CO)c1ccnc(OCC(F)(F)F)c1 [Compound 103] | A (Selective compounds showed Kv7.4 and/or Kv7.3/7.5 ΔV1/2 equal to or lower than 15 mV (letter A in table 3)) | B (Non-selective compounds showed Kv7.4 and/or Kv7.3/7.5 ΔV1/2 higher than 15 mV (letter B in table 3))
18 | 960 nM | 30.26 mV | O=C(NCc1ccnc(OCC(F)(F)F)c1)NCC1CCC(F)(F)C1 (centres unmarked) [Compound 88, 1-((3,3-Difluorocyclopentyl)methyl)-3-((2-(2,2,2-trifluoroethoxy)pyridin-4-yl)methyl) urea] | A (Selective compounds showed Kv7.4 and/or Kv7.3/7.5 ΔV1/2 equal to or lower than 15 mV (letter A in table 3)) | B (Non-selective compounds showed Kv7.4 and/or Kv7.3/7.5 ΔV1/2 higher than 15 mV (letter B in table 3))
19 | 237 nM | 20.86 mV | O=C(NCCC1(C(F)(F)F)CC1)NCc1ccnc(OCC(F)(F)F)c1F [Compound 90] | A (Selective compounds showed Kv7.4 and/or Kv7.3/7.5 ΔV1/2 equal to or lower than 15 mV (letter A in table 3)) | A (Selective compounds showed Kv7.4 and/or Kv7.3/7.5 ΔV1/2 equal to or lower than 15 mV (letter A in table 3))
20 | 206 nM | 20.49 mV | O=C(NCc1ccnc(OCC(F)(F)F)c1)NCc1cc(F)ccc1Cl [Compound 85, 1-(2-Chloro-5-fluorobenzyl)-3-((2-(2,2,2-trifluoroethoxy)pyridin-4-yl)methyl)urea] | A (Selective compounds showed Kv7.4 and/or Kv7.3/7.5 ΔV1/2 equal to or lower than 15 mV (letter A in table 3)) | A (Selective compounds showed Kv7.4 and/or Kv7.3/7.5 ΔV1/2 equal to or lower than 15 mV (letter A in table 3))
